This passage reports IC50, Ratio and ED50 results from ChEMBL document CHEMBL1151064, “Conformationally restricted 1,5-diarylpyrazoles are selective COX-2 inhibitors” (Bioorg Med Chem Lett, 1996).

Assay [1] deals with T1, Prostaglandin G/H synthase 1 (Homo sapiens, UniProt P23219). Put plainly: Inhibition of Prostaglandin G/H synthase 1 (COX-1).
Assay [2] has as its target T1, Prostaglandin G/H synthase 1. Put plainly: Relative activity against COX-1/COX-2.
Assay [3] concerns the target T2, Prostaglandin G/H synthase 2 (Homo sapiens, UniProt P35354).
T2 sequence (P35354 whole entry): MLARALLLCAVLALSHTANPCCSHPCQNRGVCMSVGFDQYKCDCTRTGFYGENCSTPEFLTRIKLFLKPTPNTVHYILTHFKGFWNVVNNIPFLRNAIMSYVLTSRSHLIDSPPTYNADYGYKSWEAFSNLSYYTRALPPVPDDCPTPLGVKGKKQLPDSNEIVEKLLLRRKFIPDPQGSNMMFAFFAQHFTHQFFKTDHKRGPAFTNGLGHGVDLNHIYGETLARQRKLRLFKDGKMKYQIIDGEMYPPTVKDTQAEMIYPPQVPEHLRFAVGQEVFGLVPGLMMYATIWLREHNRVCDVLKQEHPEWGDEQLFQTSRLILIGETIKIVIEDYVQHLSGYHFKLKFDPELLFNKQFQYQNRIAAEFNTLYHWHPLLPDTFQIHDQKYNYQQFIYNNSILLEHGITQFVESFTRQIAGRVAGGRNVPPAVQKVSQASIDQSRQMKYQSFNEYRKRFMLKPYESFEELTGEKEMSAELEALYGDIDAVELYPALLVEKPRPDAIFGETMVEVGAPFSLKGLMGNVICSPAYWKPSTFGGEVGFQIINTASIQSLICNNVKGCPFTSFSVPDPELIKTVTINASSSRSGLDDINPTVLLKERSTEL
Put plainly: Inhibition of Prostaglandin G/H synthase 2 (COX-2).

The subject of the next assay is Rattus norvegicus. The experiment in a line: Compound was tested for inhibitory activity in carrageenan rat foot edema assay. It is filed as functional. For orientation: In the carrageenan paw model, swelling and tenderness develop within hours.

T1 sequence (P23219 whole entry): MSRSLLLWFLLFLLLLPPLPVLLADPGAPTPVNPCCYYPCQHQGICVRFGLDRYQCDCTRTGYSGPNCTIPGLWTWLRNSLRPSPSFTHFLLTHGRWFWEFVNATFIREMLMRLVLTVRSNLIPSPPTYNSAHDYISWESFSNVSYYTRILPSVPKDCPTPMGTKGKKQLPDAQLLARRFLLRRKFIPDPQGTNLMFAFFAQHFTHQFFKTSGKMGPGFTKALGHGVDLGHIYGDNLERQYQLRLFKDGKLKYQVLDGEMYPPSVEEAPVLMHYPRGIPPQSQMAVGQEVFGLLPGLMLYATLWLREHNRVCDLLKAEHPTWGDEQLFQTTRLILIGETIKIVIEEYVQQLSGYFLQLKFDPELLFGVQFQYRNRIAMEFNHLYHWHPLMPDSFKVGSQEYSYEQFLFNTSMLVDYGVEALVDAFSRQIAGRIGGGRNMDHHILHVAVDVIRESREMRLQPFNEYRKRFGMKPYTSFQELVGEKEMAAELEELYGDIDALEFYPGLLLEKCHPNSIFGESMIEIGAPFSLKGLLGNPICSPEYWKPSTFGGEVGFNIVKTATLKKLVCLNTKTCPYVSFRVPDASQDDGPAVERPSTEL

By IC50 is commonly meant the midpoint of a concentration-inhibition curve. A high value points to weaker potency. `COc1ccc2c(c1)CSc1c(C(F)(F)F)nn(-c3ccc(S(N)(=O)=O)cc3)c1-2`: the IC50 was 300 nM in assay [1] and 13 nM in assay [3]. Also, in assay [2], the Ratio was 23.

Regarding `NS(=O)(=O)c1ccc(-n2nc(C(F)(F)F)c3c2-c2ccccc2OC3)cc1`, in assay [2], the Ratio came to 5.3. In assay [3], the IC50 came to 1330 nM.

Turning to `N#Cc1nn(-c2ccc(S(N)(=O)=O)cc2)c2c1SCc1cc(F)ccc1-2`, the half-maximal inhibitory concentration (IC50) in assay [1] worked out at 760 nM; in assay [3], 140 nM. Further, in assay [2], the Ratio turned out to be 5.

Turning to `COc1cc2c(cc1F)-c1c(c(C(F)(F)F)nn1-c1ccc(S(N)(=O)=O)cc1)[S+]([O-])C2` (centres undefined), the IC50 in assay [1] is greater than 100000 nM; in assay [3], 1500 nM. In addition, in assay [2], the Ratio is greater than 67.

For the compound `NS(=O)(=O)c1ccc(-n2nc(C(F)(F)F)c3c2-c2ccccc2CS3)cc1`, in assay [2], the Ratio amounted to 20. It took 20 nM to reach half-maximal inhibition in assay [3] (IC50).

As a reminder, the ED50 is the dose at which the effect has come halfway, by size or by number of responders. Read a high ED50 as a need for a large dose. Take `COc1cc2c(cc1F)-c1c(c(C(F)(F)F)nn1-c1ccc(S(N)(=O)=O)cc1)SC2`: the IC50 in assay [1] was found to be 2730 nM; in assay [3], 9 nM. In the assay with Rattus norvegicus, this compound gave an ED50 of 17.7 mg/kg. In assay [2], the Ratio was 303.

As for `Cc1cc2c(cc1F)-c1c(c(C(F)(F)F)nn1-c1ccc(S(N)(=O)=O)cc1)SC2`, the IC50 in assay [1] worked out at 11100 nM; in assay [3] it was 16 nM. In the assay on Rattus norvegicus, the ED50 was determined as 15 mg/kg. The Ratio in assay [2] was determined as 693.

As for `COc1cc2c(cc1F)-c1c(c(C(F)(F)F)nn1-c1ccc(S(C)(=O)=O)cc1)SC2`, the concentration for half-maximal inhibition (IC50) in assay [1] was greater than 100000 nM; in assay [3] it was 75 nM. For the same compound, the Ratio in assay [2] is greater than 1330.

`NS(=O)(=O)c1ccc(-n2nc(C(F)(F)F)c3c2-c2cc(F)c(F)cc2CS3)cc1`: the IC50 in assay [1] turned out to be 2670 nM; in assay [3], 6 nM. In addition, the Ratio in assay [2] stood at 381.

On to `Cc1ccc2c(c1)CSc1c(C(F)(F)F)nn(-c3ccc(S(N)(=O)=O)cc3)c1-2`, for which the results for the IC50 in assay [1] and in assay [3] were 790 nM and 22 nM, respectively. In assay [2], the Ratio is 36.

`NS(=O)(=O)c1ccc(-n2nc(C(F)(F)F)c3c2-c2ccc(F)cc2CS3)cc1`: the IC50 was determined as 270 nM in assay [1] and 40 nM in assay [3]. The Ratio in assay [2] is 7.

For `NS(=O)(=O)c1ccc(-n2nc(C(F)(F)F)c3c2-c2cc(F)ccc2CS3)cc1`, the figures for the IC50 in assay [1] and in assay [3] were 6240 nM and 21 nM, respectively. Moreover, the Ratio in assay [2] worked out at 297.

`COc1cc2c(cc1F)-c1c(c(C(F)F)nn1-c1ccc(S(N)(=O)=O)cc1)SC2`: the IC50 is greater than 100000 nM in assay [1] and 32 nM in assay [3]. Besides, in assay [2], the Ratio is greater than 3120.
